Data reported in publication PMC6501426 (Clinical Epigenetics, 2019).

Experiments:
[1] = system: PBMCs (non-proliferating, healthy donors); experiment: Cell viability, trypan blue exclusion; assay type: cell-based; conditions: Homo sapiens, PBMC, 48 h of treatment, read-out: IC50 ± SD, cell viability, PBMCs
Experimental: (§1) Peripheral blood mononuclear cells (PBMCs) from healthy donors were isolated as previously described. Freshly isolated PBMCs were either cultured and treated at 1.10^6 cells/mL (non-proliferating PBMCs) or stimulated with phytohaemoagglutinin (PHA) and interleukin (IL)-2 (called PHA_PBMCs) to induce blastogenesis in T lymphocytes before treatments as previously described. Briefly, freshly isolated PBMCs were seeded at a concentration of 2.10^6 cells/mL in RMPI 1640 supplemented with 1% antibiotic-antimycotic (Lonza, Verviers, Belgium) and 10% human AB serum (Corning, Fisher scientific, Merelbeke, Belgium). After overnight incubation, floating lymphoid cells were collected and seeded at 1.10^6 cells/mL in RMPI 1640 supplemented with 1% antibiotic-antimycotic, 5% FBS, 10% human AB serum, 1 μg/mL PHA (Gentaur, Kampenhout, Belgium), 50 U/mL IL-2 (Roche, Prophac, Luxembourg City, Luxembourg), 1% non-essential amino acids (Invitrogen, Luxembourg), 1% HEPES (Invitrogen, Luxembourg), 1% sodium pyruvate (Invitrogen, Luxembourg), and 0.1% β-mercaptoethanol (Invitrogen, Luxembourg). After 72 h, the cells were seeded at 1.10^6 cells/mL in the same mitogenic growth medium described just above and treated with test compounds.
(§2) Proliferation and viability of U-937, KG-1, RAJI, PC-3, MDA-MB-231, RPMI1788, PBMCs, and PHA_PBMCs were assessed by trypan blue exclusion assays at the indicated time points. Nuclear morphology changes associated with apoptosis and necrosis were evaluated by fluorescence microscopy after Hoechst and propidium iodide (PI) staining as previously described.
(§3) IC50 values of compounds against cellular viability were determined by using nonlinear regression fitting curves with GraphPad Prism 8 or CalcuSyn software The t test used for statistical analyses was performed with GraphPad Prism 8. All the tests were one-tailed, and a p value < 0.05 was considered statistically significant.

[2] = system: PHA_PBMCs (phytohemagglutinin-stimulated PBMCs); experiment: Cell viability, trypan blue exclusion; assay type: cell-based; conditions: Homo sapiens, PBMC; 48 h of treatment; proliferating, PHA-stimulated; read-out: IC50 ± SD, cell viability, PHA_PBMCs
Experimental: as §1, §2, §3

U-937 cells = experiment: Nuclear morphology analysis (Hoechst/PI); assay type: cell-based, human; conditions: 72 h; considerable increase between 0.5 and 1 μM
Experimental: as §2
(§4) Fig. 6 Nuclear morphology analysis in U-937, RAJI, KG-1, and RPMI1788 cells. Cells were treated with increasing doses of MC3353. Upper panels—after 72 h of treatment, the nuclear morphology was analyzed by fluorescence microscopy after Hoechst and PI staining. Pictures are representative of three independent experiments. Lower panels—the results of cell counting are represented as the mean (± SD) of three independent experiments

KG-1 cells = experiment: Nuclear morphology analysis (Hoechst/PI); assay type: cell-based, human; conditions: 72 h; considerable increase between 0.5 and 1 μM
Experimental: as §2, §4

RAJI cells = experiment: Nuclear morphology analysis (Hoechst/PI); assay type: cell-based, human; conditions: 72 h; drastic increase in cell death rate between 0.5 and 1 μM
Experimental: as §2, §4

SIK (h) = biological target: T1, SIK (h) (Homo sapiens, UniProt P57059); experiment: Kinase panel (Cerep); assay type: biochemical; conditions: read-out: % inhibition at 10 µM by MC3353, SIK (h), ATP 30 μM
T1 construct: purchased Eurofins Cerep
T1 sequence (P57059 whole entry): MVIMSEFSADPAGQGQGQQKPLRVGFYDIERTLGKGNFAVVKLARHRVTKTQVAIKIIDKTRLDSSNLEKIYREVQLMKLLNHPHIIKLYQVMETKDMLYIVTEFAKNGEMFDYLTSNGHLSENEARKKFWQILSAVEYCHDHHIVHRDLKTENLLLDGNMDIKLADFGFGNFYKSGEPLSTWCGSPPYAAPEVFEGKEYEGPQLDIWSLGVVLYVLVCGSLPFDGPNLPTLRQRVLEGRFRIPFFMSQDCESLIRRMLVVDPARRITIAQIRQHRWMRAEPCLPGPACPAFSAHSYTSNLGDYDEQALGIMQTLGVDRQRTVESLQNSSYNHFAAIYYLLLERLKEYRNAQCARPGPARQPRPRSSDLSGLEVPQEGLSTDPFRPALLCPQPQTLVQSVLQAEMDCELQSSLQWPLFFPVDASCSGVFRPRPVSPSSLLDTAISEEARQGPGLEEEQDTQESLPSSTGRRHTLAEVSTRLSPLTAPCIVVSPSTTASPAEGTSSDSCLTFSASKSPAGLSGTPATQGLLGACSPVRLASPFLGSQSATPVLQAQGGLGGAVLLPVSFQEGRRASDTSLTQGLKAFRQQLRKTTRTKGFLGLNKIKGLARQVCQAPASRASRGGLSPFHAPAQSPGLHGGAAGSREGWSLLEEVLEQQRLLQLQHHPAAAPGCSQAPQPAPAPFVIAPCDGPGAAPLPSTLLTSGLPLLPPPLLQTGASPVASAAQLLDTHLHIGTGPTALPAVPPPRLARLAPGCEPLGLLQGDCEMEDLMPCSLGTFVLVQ
Experimental: The test compound, reference compound or water (control) were mixed with the enzyme (for the exact amount see table below) in the appropriate buffer. Thereafter, the reaction was initiated by adding the required amount of the appropriate substrate and of ATP, and the mixture is incubated at room temperature (variable reaction time, see table below). For control basal measurements, the enzyme was omitted from the reaction mixture. Following incubation, the reaction was stopped by adding 13 mM EDTA. After 5 min, the proper antibody labelled with europium chelate was added. After 60 more min, the fluorescence transfer was measured at λex=337 nm, λem=620 nm and λem=665 nm using a microplate reader (Envision, Perkin Elmer). The enzyme activity was determined by dividing the signal measured at 665 nm by that measured at 620 nm (ratio). The results are expressed as a percent inhibition of the control enzyme activity.

[3] = system: E-cadherin protein in PC-3 cells; experiment: Western blot of E-cadherin in PC-3; assay type: cell-based, human; conditions: 1 μM, 24 h
Text: Cells were lysed in Laemmli buffer; subsequently, the proteins were resolved by sodium dodecyl sulfate-polyacrylamide gel electrophoresis and transferred to a 0.45-μm nitrocellulose membrane (Bio-Rad Laboratories, Hercules, CA). The following primary antibodies were used for immunoblotting: α-E-cadherin (BD Transduction Laboratories, Franklin Lakes, NJ), α-MMP2 (Abcam), α-DNMT3a (Santa Cruz Biotechnologies, Dallas, TX), and α-GAPDH (Millipore Corp., Bedford, MA), used as a loading control. The immune complexes were detected with horseradish peroxidase-conjugated species-specific secondary antiserum (Bio-Rad Laboratories, Milan, Italy) then by enhanced chemiluminescence reaction (Bio-Rad Laboratories, Milan, Italy). Densitometric analysis of protein expression was performed by using the Fiji ImageJ image processing package.
Fig. 8 Effects of MC3353 on E-cadherin and MMP2 protein expression levels in PC-3 cancer cells. Cells were treated with vehicle (DMSO) used as control (CTR) or MC3353 for 24 h. a E-cadherin and MMP2 protein detection by western blot. GAPDH was used as a loading control. Blots are representative of three independent experiments. b Densitometric analysis of E-cadherin and MMP2 protein expression. Significance is represented as *p < 0.05 related to the control groups. Data were obtained from three independent experiments and expressed as mean ± SEM

O=C(Nc1ccc(NC(=O)c2ccc(Nc3ccnc4ccccc34)cc2)cc1)OCc1ccccc1 [MC3353, Benzyl (4-(4-(quinolin-4-ylamino)benzamido)phenyl)carbamate]
IC50 [1]: 8.9 ± 4.2 µM
IC50 [2]: 4.6 ± 0.5 µM
cell death modality, U-937 (U-937 cells): induced mainly apoptosis
cell death modality, KG-1 (KG-1 cells): induced mainly apoptosis
cell death modality, RAJI (RAJI cells): shift from apoptosis to necrosis
inhibition at 10 µM (SIK (h)): 33%
E-cadherin protein expression (western blot, densitometry), PC-3 [3]: significantly induced E-cadherin expression
